Assay results taken from the supplement of paper PMC5908809.

Tests used:
[1] = test system: normal primary NK cells, pool 2 (3 donors) (IL-2 2.5 ng/mL); assay: percent inhibition of viability; higher = more inhibition; conditions: 72 h
[2] = test system: YT (IL-2 2.5 ng/mL); assay: as above; conditions: 72 h
[3] = test system: normal primary NK cells, pool 3 (3 donors) (IL-2 2.5 ng/mL); assay: as above; conditions: 72 h
[4] = test system: normal primary NK cells, pool 1 (3 donors) (IL-2 2.5 ng/mL); assay: as above; conditions: 72 h
[5] = test system: KHYG-1 (IL-2 2.5 ng/mL); assay: as above; conditions: 72 h
[6] = test system: DERL-7 (IL-2 2.5 ng/mL); assay: as above; conditions: 72 h
[7] = test system: NKL (IL-2 2.5 ng/mL); assay: as above; conditions: 72 h
[8] = test system: KAI3 (IL-2 2.5 ng/mL); assay: as above; conditions: 72 h
[9] = test system: normal primary NK cells, pool 1 (3 donors), resting (IL-2 0 ng/mL); assay: as above; conditions: 72 h
[10] = test system: NK-YS (IL-2 2.5 ng/mL); assay: as above; conditions: 72 h
[11] = test system: IMC-1 (IL-2 20 ng/mL); assay: as above; conditions: 72 h
[12] = test system: SNK-6 (IL-2 2.5 ng/mL); assay: as above; conditions: 72 h
[13] = test system: NK-92 (IL-2 2.5 ng/mL); assay: as above; conditions: 72 h
[14] = test system: normal primary NK cells, pool 2 (3 donors) (IL-2 2.5 ng/mL); assay: drug sensitivity score (DSS) (DSS units); higher = more sensitive; extreme values may be limits of the assay; conditions: 72 h
[15] = test system: YT (IL-2 2.5 ng/mL); assay: as above; conditions: 72 h
[16] = test system: normal primary NK cells, pool 3 (3 donors) (IL-2 2.5 ng/mL); assay: as above; conditions: 72 h
[17] = test system: normal primary NK cells, pool 1 (3 donors) (IL-2 2.5 ng/mL); assay: as above; conditions: 72 h
[18] = test system: KHYG-1 (IL-2 2.5 ng/mL); assay: as above; conditions: 72 h
[19] = test system: DERL-7 (IL-2 2.5 ng/mL); assay: as above; conditions: 72 h
[20] = test system: NKL (IL-2 2.5 ng/mL); assay: as above; conditions: 72 h
[21] = test system: KAI3 (IL-2 2.5 ng/mL); assay: as above; conditions: 72 h
[22] = test system: normal primary NK cells, pool 1 (3 donors), resting (IL-2 0 ng/mL); assay: as above; conditions: 72 h
[23] = test system: NK-YS (IL-2 2.5 ng/mL); assay: as above; conditions: 72 h
[24] = test system: IMC-1 (IL-2 20 ng/mL); assay: as above; conditions: 72 h
[25] = test system: SNK-6 (IL-2 2.5 ng/mL); assay: as above; conditions: 72 h
[26] = test system: NK-92 (IL-2 2.5 ng/mL); assay: as above; conditions: 72 h
[27] = test system: normal NK cells expanded with K562-aAPC; assay: percent inhibition of viability; higher = more inhibition; conditions: 72 h, IL-2 2.5 ng/mL
Description: (§1)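 Drug sensitivity and resistance testing on K562-aAPC-expanded normal NK cells: 5 concentrations (10-fold steps over a 10,000-fold range), 72 h at 37 °C, viability by CellTiter-Glo normalised to DMSO and benzethonium chloride controls; DSS from the fitted curve.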

[28] = test system: normal NK cells expanded with K562-aAPC; assay: drug sensitivity score (DSS) (DSS units); higher = more sensitive; extreme values may be limits of the assay; conditions: 72 h; IL-2 2.5 ng/mL
Description: as §1

CCCc1cc(C)[nH]c(=O)c1CNC(=O)c1cc(-c2ccnc(N3CCN(C)CC3)c2)cc2c1cnn2C(C)C [GSK343] (max concentration tested 10000 nM)
percent inhibition of viability [%]
Conditions | 1 nM | 10 nM | 100 nM | 1000 nM | 10000 nM
[1] | -8.31 | -4.46 | -6.41 | -0.99 | -0.1
[2] | -0.53 | -1.05 | -6.88 | 3.69 | 99
[3] | -4.17 | -3.24 | -2 | -6.83 | 59.2
[4] | 2.11 | -6.04 | -3.32 | 7.91 | 93.1
[5] | 0.04 | 1.72 | -6.82 | 3.86 | 99.8
[6] | 3.94 | -4.82 | 3.13 | 8.76 | 96.6
[7] | -9.45 | -14.8 | -10.7 | -3.16 | 99.2
[8] | -6.07 | -1.68 | -2.65 | 8.26 | 99.1
[9] | -0.38 | -4.24 | -14.9 | 10.5 | 92.6
[10] | -5.74 | -3.63 | -4.33 | 4.65 | 101
[11] | -6.79 | -3.69 | -6.5 | -9.82 | 99.4
[12] | -12.3 | 5.94 | -7.63 | -6.91 | 99.4
[13] | -15.4 | -9.54 | -9.12 | -0.4 | 98.1
[27] | -1.65 | -5.79 | -7.46 | -5.85 | 99.2

Conditions | drug sensitivity score
[14] | 0
[15] | 6
[16] | 2.74
[17] | 6.41
[18] | 6.07
[19] | 6.76
[20] | 5.27
[21] | 6.8
[22] | 6.86
[23] | 6.26
[24] | 4.86
[25] | 5.02
[26] | 5.45
[28] | 5.07

CO[C@H]1C[C@@H]2CC[C@@H](C)[C@@](O)(O2)C(=O)C(=O)N2CCCC[C@H]2C(=O)O[C@H]([C@H](C)C[C@@H]2CC[C@@H](OCCO)[C@H](OC)C2)CC(=O)[C@H](C)/C=C(\C)[C@@H](O)[C@@H](OC)C(=O)[C@H](C)C[C@H](C)/C=C/C=C/C=C/1C [Everolimus] (max concentration tested 100 nM)
percent inhibition of viability [%]
Conditions | 0.01 nM | 0.1 nM | 1 nM | 10 nM | 100 nM
[1] | -7.7 | -1.98 | 0.82 | 5.73 | 4.97
[2] | 0.19 | -0.65 | 15.8 | 38.4 | 37
[3] | -12.6 | -4.69 | -3.14 | -1.42 | -2.25
[4] | -12.5 | -14.8 | -8.5 | 3.67 | 5.77
[5] | -2.44 | -5.06 | 0.91 | 30.6 | 28.2
[6] | -6.16 | 5.85 | 26.6 | 49.4 | 52.4
[7] | 4.18 | 17.6 | 36.9 | 46 | 43.3
[8] | -3.78 | 2.36 | 31.4 | 45.3 | 37.6
[9] | -9.7 | -10.5 | -6.43 | 11.5 | 21.5
[10] | -2.59 | 2.94 | 38.2 | 47.2 | 45.8
[11] | -0.49 | -3.23 | -12.1 | -39.5 | -47.1
[12] | 5.61 | 27 | 39.2 | 45.4 | 42.4
[13] | -9.11 | -13.2 | 0.14 | 10.7 | 17
[27] | -0.77 | -3.8 | -2.52 | 2.05 | 0.46

Conditions | drug sensitivity score
[14] | 0
[15] | 8.98
[16] | 0
[17] | 0
[18] | 5.27
[19] | 12.3
[20] | 14.5
[21] | 12.1
[22] | 1.91
[23] | 13.5
[24] | 0
[25] | 16.6
[26] | 1.27
[28] | 0

Clc1ccc(Nc2nnc(Cc3ccncc3)c3ccccc23)cc1 [Vatalanib] (max concentration tested 10000 nM)
percent inhibition of viability [%]
Conditions | 1 nM | 10 nM | 100 nM | 1000 nM | 10000 nM
[1] | -10.1 | -2.12 | -4.7 | -5.37 | 2.5
[2] | -1.15 | 0.78 | 6.42 | -0.36 | 12.6
[3] | -15.5 | -8.9 | -5.65 | -2.32 | -4.9
[4] | -1.16 | -14.2 | -9.3 | -17.4 | -10.3
[5] | 0.78 | 0.74 | 8.34 | 3.67 | 19.5
[6] | 1.72 | 5.91 | 0.68 | 4.05 | 0.46
[7] | -15.8 | -12.6 | -1.27 | 4.13 | 31.1
[8] | 0.27 | -2.4 | -1.03 | -4.6 | 20.6
[9] | 8.82 | -6.33 | -5.39 | -29.3 | 12.2
[10] | 0.51 | -0.15 | 5.11 | 1.16 | 15.7
[11] | -2.63 | 0.44 | 3.66 | 5.09 | 30.7
[12] | 9.43 | 19.1 | 24.5 | 8.51 | 0.02
[13] | 5.05 | 7.47 | 10.4 | 6.67 | 30.2
[27] | -5.26 | 1.3 | -1.96 | 9.03 | 9.76

Conditions | drug sensitivity score
[14] | 0
[15] | 0.07
[16] | 0
[17] | 0
[18] | 0.55
[19] | 0
[20] | 2.05
[21] | 0.45
[22] | 0.01
[23] | 0.39
[24] | 2.18
[25] | 0
[26] | 2.23
[28] | 0

O=C1NC(=O)[C@@H](c2cn3c4c(cccc24)CCC3)[C@@H]1c1c[nH]c2ccccc12 [Tivantinib] (max concentration tested 1000 nM)
percent inhibition of viability [%]
Conditions | 0.1 nM | 1 nM | 10 nM | 100 nM | 1000 nM
[1] | -7.65 | -12.3 | -6.73 | 13.4 | 23.2
[2] | -0.05 | -2.14 | 2.38 | 8.83 | 93.5
[3] | -12.8 | -3.79 | -11.9 | 5.81 | 17.4
[4] | -0.92 | 0.64 | -7.52 | -8.4 | 6.83
[5] | 0.89 | -0.35 | 5.11 | 11.5 | 99.1
[6] | 1.35 | 4.31 | 5.17 | -5.73 | 98.9
[7] | -20.3 | -13.1 | -9.15 | -9.89 | 84.3
[8] | -4.06 | 0.6 | 3.77 | 11.4 | 52.4
[9] | -0.8 | 10.8 | 3.09 | 6.28 | 8.64
[10] | 0.78 | -2.63 | 4.33 | 31.1 | 73.6
[11] | -2.06 | -7.71 | 1.1 | 0.97 | 97.6
[12] | 9.19 | 0.24 | 0.91 | 70.4 | 83.3
[13] | -9.63 | -0.01 | -3.88 | 39 | 94.7
[27] | 4.66 | 1 | 5.6 | 5.87 | 61

Conditions | drug sensitivity score
[14] | 2.26
[15] | 6.61
[16] | 1
[17] | 0
[18] | 7.4
[19] | 5.07
[20] | 4.03
[21] | 4.63
[22] | 0
[23] | 7.74
[24] | 5.57
[25] | 12.9
[26] | 10.4
[28] | 4.27
